Tests used:
Amaranthus retroflexus = test: Post-emergence treatment test in a farmland (foliar spray, greenhouse pots); type: in vivo; settings: application rate 4 kg/ha, sprayed at two-leaf stage, visually evaluated nine days after spraying, 11 stages from 0 (no effect) to 10 (complete kill)
Experimental: Nursery soil was put in a plastic pot measuring 8 cm in diameter and 6.5 cm in height, and in the pot, seeds of Amaranthus retroflexus were sown, and then covered with soil of about 0.5 cm thickness, and the plants were grown in a greenhouse. When the Amaranthus retroflexus plants were grown to two-leaf stage, a diluted solution containing either the present compound or a compound represented by formula (B) below (which is described in European Patent No. 1122244 B2) (hereinafter, referred to as Compound B) was uniformly sprayed on the whole Amaranthus retroflexus plants so that the application rates of the chemicals would be values indicated in Table 1.
Here the diluted solution was prepared by dissolving the present compound or the compound B in dimethylformamide solution containing 2% of Tween 20 (polyoxyethylene sorbitan fatty acid ester) (manufactured by MP Biomedicals Inc.) and then diluting the solution with deionized water.
The Amaranthus retroflexus plants that were sprayed with the diluted solution containing the present compound or the compound B were grown in a greenhouse. Nine days after spraying, the efficacy for controlling Amaranthus retroflexus plants was observed, thereby examining a herbicidal effect. Here the herbicidal effect was visually observed and evaluated by classifying the effect into 11 stages from 0 (no effect) to 10 (complete kill).

Arabidopsis thaliana = test: Inhibitory activity on emergence of Arabidopsis thaliana (24 well plate, filter paper); type: in vivo; settings: treatment concentration 8000 ppm, visually evaluated seven days after sowing, indices 0 (no effect) to 100 (no emergence)
Experimental: Inhibitory Activity on Emergence of Arabidopsis thaliana
Each well of 24 well microtiter plates was matted with a filter paper, and to the filter paper was added dropwise the solution in which the present compound or the compound B was dissolved in acetone. After air-drying, distilled water was added to each well so that the concentration of the present compound or the compound B in each well would be 8000 ppm. Next, seeds of Arabidopsis thaliana were sown into each well containing the present compound or the compound B, followed by putting a lid on each well, and cultivating Arabidopsis thaliana under the condition that a cultivation at 25° C. under lighting for 16 hours and a successive cultivation at 25° C. under dark for 8 hours were repeated. Seven days after sowing, the inhibitory activity on emergence of Arabidopsis thaliana was visually evaluated by classifying the activity into 0 to 100 indices (0: no effect to 100: no emergence).

With `CCOC(=O)COc1ncccc1Oc1cc(NC(C)=O)c(F)cc1Cl` [Compound B, N-[4-chloro-2-fluoro-5-{2-(ethoxycarbonyl)methoxy-3-pyridyloxy}phenyl]acetamide, reference compound] the “Herbicidal Effect” value (Amaranthus retroflexus) was 1 and the “Inhibitory Activity on Emergence” value (Arabidopsis thaliana) was 30.

`CCOC(=O)COc1ncccc1Oc1cc(NC(=O)NC(C)=O)c(F)cc1Cl` [Present compound] was tested, and the “Herbicidal Effect” value (Amaranthus retroflexus) was 8, the “Herbicidal Effect” value (Amaranthus retroflexus; listed as present compound) was “higher herbicidal effect compared to the compound B” and the “Inhibitory Activity on Emergence” value (Arabidopsis thaliana) was 80. For the same compound, the “Inhibitory Activity on Emergence” value (Arabidopsis thaliana; listed as present compound) was “higher inhibitory activity compared to the compound B”.

— patent US10893676B2, “1-acetyl-3-phenyl urea compound, and use thereof” (Sumitomo Chemical Company, Limited, priority 2016, dated 2021)
